Laboratory results published in patent publication US5563176A (priority 1994, dated 1996).
Converted amounts (≈) assume the structure as drawn. “And” between values parts separate entries of the source, which are not always exact repeats. Equal values may be shown once. Read-outs that look alike come from different tables or passages of the source.

Columns and labels:
HL-60 cells = experiment: cells; type: cell-based, human
HL60 cells (myeloid) = experiment: cells; type: cell-based, human; settings: for IC50: Homo sapiens, HL-60, 2 h, read-out: Two hour IC50
MV522 = experiment: cells; type: cell-based; settings: Homo sapiens, MV522, 48 h, read-out: 48 hour IC50
8392 cells (B-cell) = experiment: cells; type: cell-based; settings: 2 h, read-out: Two hour IC50
MV522 cells = experiment: cells; type: cell-based, human; settings: for IC50: Homo sapiens, MV522, 2 h, read-out: Two hour IC50
8392 cells = experiment: cells; type: cell-based; settings: 48 h, read-out: 48 hour IC50
HL60 cells = experiment: cells; type: cell-based; settings: Homo sapiens, HL-60, 48 h, read-out: 48 hour IC50
P388 leukemia = P388 leukemia in mice; type: in vivo, murine
Experimental: (§1) HMAF was also evaluated against P388 leukemia in mice. The tumor inoculum is prepared by removing ascites fluid containing P388 cells from tumored B6D2F1 mice, centrifuging the cells, and then resuspending the leukemia cells in saline. Mice receive 1×10^6 P388 cells i.p. on day 0. Initial dosing experiments on a daily×5 schedule in B6D2F1 mice established the MTD of HMAF as 7.5 mg/kg. HMAF was tested at doses of 7.5 and 5.0 mg/kg vs. the P388 leukemia model. […] A T/C value of 150 means that treated mice lived 50% longer than the controls. Weight loss at the higher dose was 13% on day 8, again confirming that 7.5 mg/kg is the MTD for this agent on the daily×5 schedule.

[1] = tested on: MX-1 mammary carcinoma xenograft; experiment: MX-1 human breast tumor xenograft in nude mice; type: in vivo
Description: (§2) Nude mice are implanted subcutaneously (s.c.) by trocar with fragments of MX-1 mammary carcinomas harvested from s.c. growing MX-1 tumors in nude mice hosts. When tumors are approximately 5 mm×5 mm in size (usually about ten days after inoculation), the animals are pair-matched into treatment and control groups. Each group contains 10 tumored mice, each of which is eartagged and followed individually throughout the experiment. The administration of drugs or vehicle begins the day the animals are pair-matched (day 1). The doses, route of drug administration and schedule are selected as appropriate for the study in question, If the maximum tolerated dose (MTD) of an agent is not known, it was determined in an initial dosing experiment in non-tumored mice. In a typical experiment, drugs are given at their MTD and 1/2 MTD doses i.p. on a daily×5 schedule.
The experiment is usually terminated when control tumors reach a size of 2-3 g. Mice are weighed twice weekly, and tumor measurements are taken by calipers twice weekly, starting on day 1. These tumor measurements are converted to mg tumor weight by a well-known formula, and from these calculated tumor weights the termination date can be determined. Upon termination, all mice are weighed, sacrificed, and their tumors excised. Tumors, are weighed, and the mean tumor weight per group is calculated. In this model, the mean treated tumor weight/mean control tumor weight×100% (T/C) is subtracted from 100% to give the tumor growth inhibition (TGI) for each group).
Some drugs cause minor shrinkage in the MX-1 model. With these agents, the final weight of a given tumor is subtracted from its own weight at the start of treatment on day 1. This difference divided by the initial tumor weight is the % shrinkage. A mean % tumor shrinkage can be calculated from data from the mice in a group that experienced MX-1 regressions. If the tumor completely disappears in a mouse, this is considered a complete regression or complete tumor shrinkage.
(§3) HMAF was evaluated against the MX-1 mammary carcinoma xenograft at the MTD of 7.5 mg/kg, and also at 5.0 mg/kg, i.p. daily×5, delivered in 10% cremophor, 20% ethanol and 70% isotonic saline. The 7.5 mg mg/kg dose caused no lethality, or unacceptable weight loss to the nude mice (day 8 weight loss=9.5%). […] The 5.0 mg/kg dose produced 2 complete regressions, and an average 88% tumor shrinkage in the other 8 mice.

[2] = tested on: human lung adenocarcinoma MV522; settings: in vivo
[3] = tolerability in nude mice (MX-1 study); type: in vivo
Description: as §2, §3

MCF-7 human breast tumor = experiment: in vitro activity, MCF-7; type: cell-based
B16 melanoma [4] = experiment: in vitro activity, B16; type: cell-based
murine P388 cells = experiment: in vitro activity, P388; type: cell-based
B16 melanoma [5] = experiment: B16 melanoma in mice; type: in vivo; settings: same doses as P388
[6] = dosing/tolerability in B6D2F1 mice; type: in vivo
Experimental: as §1

[7] = tested on: human lung adenocarcinoma MV522; experiment: animal or person; settings: MV522, ip, read-out: life span
HT-29 human colon tumor = experiment: in vitro activity, HT-29; type: cell-based; settings: HT-29, HT29
[8] = kinetics of the reaction with dilute HCl; type: physicochemical; settings: illudin M
Description: Consistent with the above hypothesis are the results of the kinetics of the reaction of illudin M and dehydroilludin M with dilute HCl. […] In the reaction with dehydroilludin M, no intermediate could be detected by NMR spectroscopy. Presumably it formed too slowly and is too short-lived to be detected.

Dunning leukemia = settings: NCI DCT; cited from earlier work
[9] = tested on: HL60/MRI cells (human myeloid leukemia tumor cells); settings: in vivo, iv

Compound: C[C@@]1(CO)[C@H](O)CC[C@@]2(C)[C@H]1CC[C@H]1C[C@@H]3C[C@@]12CC[C@]3(O)CO [Aphidocolin]
- IC50 (HL-60 cells; read-out: IC50): 2100 nM

Compound: Cc1cc2c(c(C)c1CCO)C(=O)[C@@H](C)[C@@H]2O [Pterosin C]
- IC50 (HL-60 cells; read-out: IC50): 12500 nM

Compound: CC(=O)OCC1=C(C)C=C2C(=O)[C@](C)(O)C3(CC3)C(C)=C21 [6-acetoxymethylacylfulvene]
- IC50 (HL60 cells (myeloid)): 3330 nM
- IC50 (MV522): 486 ± 42 nM
- IC50 (8392 cells (B-cell)): 47500 nM
- IC50 (MV522 cells): 1070 nM
- IC50 (8392 cells): 4430 nM
- IC50 (HL60 cells): 806 ± 30 nM

Compound: CC1=C(CO)C2=C(C)C3(CC3)[C@@](C)(O)C(=O)C2=C1 [6-hydroxymethylacylfulvene]
- toxicity to target tumor cells (HL60 cells (myeloid)): markedly toxic
- IC50 (HL60 cells (myeloid)): 150 ± 11 nM
- treated/control (T/C) (P388 leukemia; 5.9 mg/kg): 137
- treated/control (T/C) (P388 leukemia; 6.5 mg/kg): 140
- complete regressions ([1]; 5.0 mg/kg i.p. daily×5, of 10 mice): 2
- average tumor shrinkage ([1]; 5.0 mg/kg i.p. daily×5, other 8 mice): 88%
- complete tumor regressions ([1]; 7.5 mg/kg i.p. daily×5, of 10 mice): 4 mice
- average tumor shrinkage ([1]; 7.5 mg/kg i.p. daily×5, other 6 mice): 91%
- activity in MX-1 xenograft ([1]; in vivo): highly active
- efficacy in this model [2]: markedly increased the life span
- life span versus control [2]: lived significantly longer
- toxic side effects (activity, weight gain, food or water intake) [2]: no evidence of toxic side effects
- tumor growth response ([2]; 10 mg/kg): Tumor regression
- animals alive ([2]; ip, 10 mg/kg): 2 animals alive, ? cured
- life span ([2]; ip, 10 mg/kg): 233 ± 18% and 232 ± 20% and > 204%
- IC50 (MV522): 73 ± 8 nM
- IC50 (8392 cells (B-cell)): 7360 nM
- lethality ([3]; 7.5 mg/kg i.p. daily×5): no lethality
- weight loss ([3]; 7.5 mg/kg i.p. daily×5, day 8): 9.5%
- MTD ([3]; mouse, in vivo, ip, i.p. daily×5, nude mice): 7.5 mg/kg
- IC50 (MCF-7 human breast tumor; Homo sapiens, MCF7, MCF-7, read-out: IC50): 0.036 to 0.07 µg/mL (≈ 0.146 to 0.284 µM)
- IC50 (MCF-7 human breast tumor; MCF-7, listed as HMAF): 0.036 µg/mL and 0.043 µg/mL
- IC50 (MV522 cells): 114 ± 28 nM
- toxicity to target tumor cells (MV522 cells; MV522, 2 and 48 hour): markedly toxic
- IC50 (B16 melanoma [4]; B16, listed as HMAF): 4.65 µg/mL and 3.73 µg/mL
- IC50 (B16 melanoma [4]; Mus musculus, B16, B16, read-out: IC50): 3.73 to 4.65 µg/mL (≈ 15.1 to 18.9 µM)
- IC50 (8392 cells): 76 ± 4 nM
- IC50 (murine P388 cells; Mus musculus, P388, P388, read-out: IC50): 0.16 to 0.32 µg/mL (≈ 0.65 to 1.3 µM)
- IC50 (murine P388 cells; P388, listed as HMAF): 0.165 µg/mL and 0.319 µg/mL
- activity against B16 melanoma in mice (B16 melanoma [5]): inactive
- weight loss ([6]; higher dose, day 8, P388 study): 13%
- MTD ([6]; mouse, in vivo, daily×5, B6D2F1 mice): 7.5 mg/kg
- response vs control in vivo at 1 mg/kg [7]: 135 ± 10%
- response vs control in vivo at 5 mg/kg [7]: 154 ± 13%
- IC50 (HT-29 human colon tumor): 0.05 µg/mL (≈ 0.203 µM)
- IC50 (HL60 cells): 4 ± 1 nM

Compound: CC1=C(Br)C2=C(C)C3(CC3)[C@@](C)(O)C(=O)C2=C1 [6-bromoacylfulvene, 6-Bromoacylfulvene]
- toxicity to target tumor cells (HL60 cells (myeloid)): markedly toxic
- IC50 (HL60 cells (myeloid)): 803 ± 88 nM
- efficacy in this model [2]: effective in this model
- IC50 (MV522): 356 ± 61 nM
- toxicity to target tumor cells (MV522 cells): markedly toxic
- IC50 (MV522 cells): 4180 nM
- IC50 (8392 cells): 1190 nM
- IC50 (HL60 cells): 412 ± 21 nM

Compound: COc1cccc2c1C(=O)c1c(O)c3c(c(O)c1C2=O)C[C@@](O)(C(=O)CO)C[C@@H]3O[C@H]1C[C@H](N)[C@H](O)[C@H](C)O1 [Adriamycin]
- life span versus control [2]: no significant increase in the life span
- life span ([2]; ip, 2.6 mg/kg): 98 ± 12% and 150 ± 25%

Compound: CC1=C2C(=CC(C)(C)C2O)C(=O)[C@](C)(O)C12CC2 (stereo partly drawn) [Illudin M, reference compound]
- half-life [8]: 2.47 h
- k, pseudo first-order reaction [8]: 4.7×10^-3
- IC50 (HL-60 cells; Homo sapiens, HL-60): 10 nM
- life span of rats with Dunning leukemia (Dunning leukemia): significantly increased the life span

Compound: COc1ccc(CC2=C(C)C=C3C(=O)[C@](C)(O)C4(CC4)C(C)=C32)cc1 [6-(p-methoxybenzyl)acylfulvene]
- IC50 (HL60 cells (myeloid)): 1960 nM
- IC50 (MV522): 1550 nM
- IC50 (8392 cells (B-cell)): 35700 nM
- IC50 (MV522 cells): 2040 nM
- IC50 (8392 cells): 7140 nM
- IC50 (HL60 cells): 1050 nM

Compound: O=NN(CCCl)C(=O)NCCCl [BCNU]
- IC50 (HL-60 cells; Homo sapiens, HL-60): 23300 nM

Compound: CC1=C(I)C2=C(C)C3(CC3)[C@@](C)(O)C(=O)C2=C1 [6-iodoacylfulvene, 6-Iodoacylfulvene]
- toxicity to target tumor cells (HL60 cells (myeloid)): markedly toxic
- IC50 (HL60 cells (myeloid)): 2600 nM
- IC50 (MV522): 556 ± 47 nM
- IC50 (8392 cells (B-cell)): 10300 nM
- toxicity to target tumor cells (MV522 cells): markedly toxic
- IC50 (MV522 cells): 956 ± 152 nM
- IC50 (8392 cells): 1700 nM
- response vs control in vivo at 20 mg/kg [7]: 120 ± 34%
- IC50 (HL60 cells): 290 ± 12 nM

Compound: CC1=Cc2cc(C)c(C)c(C)c2C1=O [2,5,6,7-tetramethyl-1-indenone, 2,5,6,7-Tetramethyl-1-Indenone]
- IC50 (HL-60 cells; Homo sapiens, HL-60): 475 nM

Compound: CO[C@@]12[C@H](COC(N)=O)C3=C(C(=O)C(C)=C(N)C3=O)N1C[C@@H]1N[C@@H]12 [mitomycin C]
- life span versus control [2]: no significant increase in the life span
- life span ([2]; ip, 2.4 mg/kg): 111 ± 2% and 149 ± 12%

Compound: CC1=CC2=C(C)C3(CC3)[C@@](C)(O)C(=O)C2=C1 [Illudofulvene]
- IC50 (HL60 cells (myeloid)): 998 ± 244 nM
- adverse effects (food or water intake, body weight) [9]: did not display any evidence of adverse effect
- inhibition of tumor growth [9]: effective at inhibiting tumor growth
- IC50 (MV522): 349 ± 23 nM
- IC50 (8392 cells (B-cell)): 66.4 nM
- IC50 (MV522 cells): 727 ± 180 nM
- IC50 (HL-60 cells; Homo sapiens, HL-60): 500 nM
- IC50 (8392 cells): 833 ± 152 nM
- IC50 (HL60 cells): 364 ± 74 nM

Compound: CC(=O)O[C@H]1C(=O)[C@@]2(C)[C@H]([C@H](OC(=O)c3ccccc3)[C@]3(O)C[C@H](OC(=O)[C@H](O)[C@@H](NC(=O)c4ccccc4)c4ccccc4)C(C)=C1C3(C)C)[C@]1(OC(C)=O)CO[C@@H]1C[C@@H]2O [taxol]
- life span versus control [2]: no significant increase in the life span
- tumor growth response [2]: failed to inhibit tumor growth
- life span ([2]; ip, 4 mg/kg): 120 ± 10%
- drug toxicity ([2]; ip, 6 mg/kg): drug toxicity was now killing the animals
- response vs control in vivo at 4 mg/kg [7]: 100 ± 10%
- response vs control in vivo at 6 mg/kg [7]: 93 ± 22%
- response vs control in vivo at 20 mg/kg [7]: 113 ± 22%

Compound: CC1=C(Cc2ccc(O)cc2)C2=C(C)C3(CC3)[C@@](C)(O)C(=O)C2=C1 [6-(p-hydroxybenzyl)acylfulvene, 6-(p-Hydroxybenzyl)acylfulvene]
- IC50 (HL60 cells (myeloid)): 264 ± 38 nM
- efficacy in this model [2]: effective in this model
- IC50 (MV522): 615 ± 56 nM
- IC50 (8392 cells (B-cell)): 95200 nM
- IC50 (MV522 cells): 1180 nM
- IC50 (8392 cells): 11100 nM
- response vs control in vivo at 15 mg/kg [7]: 125 ± 16%
- response vs control in vivo at 20 mg/kg [7]: 126 ± 22%
- IC50 (HL60 cells): 382 ± 39 nM
